Test results published in PubChem BioAssay (NCI).
“And” between values parts separate entries of the source, which are not always exact repeats. Equal values may be shown once.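 Five compound concentrations were applied to cells in 96-well plates for 48 hours; endpoints were derived by simple linear interpolation of the resulting dose-response curve. GI50 is the concentration that inhibits growth by half. TGI denotes the concentration required for complete inhibition of growth.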

Experiments:
Assay in all cases: NCI tumour cell line growth inhibition, 48 h
MDA-MB-468 breast = test system: MDA-MB-468 breast
SK-MEL-28 melanoma = test system: SK-MEL-28 melanoma
OVCAR-5 ovarian = test system: OVCAR-5 ovarian
SNB-75 CNS = test system: SNB-75 CNS
HS 578T breast = test system: HS 578T breast
RXF 393 renal = test system: RXF 393 renal
HL-60(TB) leukemia = test system: HL-60(TB) leukemia
ACHN renal = test system: ACHN renal
NCI/ADR-RES ovarian = test system: NCI/ADR-RES ovarian

Row | SMILES | GI50 (MDA-MB-468 breast) | TGI (MDA-MB-468 breast) | further results
1 | CCCCN(CCCC)CCCN=c1nc2c(c(N)n1-c1ccccc1)c(=S)n(-c1ccccc1)c(=S)n2-c1ccccc1 | 0.218 µM | 0.518 µM | –
2 | CNC(C)C(=O)N[C@H](C(=O)N1CCC[C@@H]1CN(CCc1ccccc1)C(=O)C(F)(F)F)[C@H](C)OCC#CC#CCO[C@H](C)[C@H](NC(=O)[C@H](C)NC)C(=O)N1CCC[C@H]1CN(CCc1ccccc1)C(=O)C(F)(F)F (some centres not stated) | < 0.01 µM | 0.0221 µM | –
3 | COc1ccc(-c2nn(-c3cccc(NC(=O)Nc4cc(C(F)(F)F)cc(C(F)(F)F)c4)c3)cc2-c2ccncc2)cc1Cl | 0.641 µM | 2.89 µM | –
4 | COc1cc(C2CC(c3cc(C)ccc3C)=NN2c2ccc(S(=O)(=O)NC(=O)NCc3ccccc3)cc2)cc(OC)c1OC (configuration not stated) | 2.32 µM | 5.53 µM | –
5 | OC(COc1cccc2ccccc12)CN1CCN(c2ccccc2)CC1 (configuration not stated) | 16.6 µM | 31.1 µM | –
6 | O=C1/C(=C/c2ccccc2)CCC/C1=C\c1ccccc1 | 3.12 µM | 19.4 µM | –
7 | COC(=O)[C@@]1(C)CC[C@]2(C)CC[C@]3(C)C4=CC=C5C(=CC(=O)C(O)=C5C)[C@]4(C)CC[C@@]3(C)[C@@H]2C1 | 0.165 µM | 0.359 µM | –
8 | C/C(=C\CCc1ccoc1)CC/C=C(\C)CCCN1CCC(CO)CC1 | 1.7 µM | 4.45 µM | –
9 | COc1ccc(-c2cc(/C=C3\C(=O)Nc4ccc(OC)cc43)[nH]n2)cc1 | 3.71 µM | > 100 µM | –
10 | COc1c(CNC(=O)CCl)cc2[nH]c(C)cc2c1CNC(=O)CCl | 5.94 µM | 25.9 µM | –
11 | Cc1cc(-c2nc(-c3ccc(OC(F)(F)F)cc3)no2)nn1Cc1ccnc(N2CCN(C3CC3)CC2)c1 | < 0.01 µM | 5.68 µM | –
12 | COC(=O)[C@H](CC(C)C)NC(=O)NC(=O)NC(=O)CI | 1.97 µM | 4.24 µM | –
13 | N#CN1CCC[C@H]1C(=O)N1CCc2c(-c3[nH]nc4ncccc34)cccc21 | < 0.01 µM | < 0.01 µM | –
14 | COc1ccc(/C=C/c2cc(N3CCOCC3)c3cc(F)c(F)cc3n2)cc1OC | 0.277 µM | 1.64 µM | –
15 | CC[CH2][Sn]([Cl])([Cl])[CH2]CC | 1.92 µM | 6.96 µM | –
16 | CC[C@H](C)n1cc(C)c2c(C(=O)NCc3c(C)cc(C)[nH]c3=O)cc(-c3ccc(N4CCNCC4)nc3)cc21 | 2.15 µM and 5.09 µM | 7.63 µM and 18.7 µM | –
17 | CNc1ccc(-c2cc(=O)oc3ccc(Cl)cc23)cc1 | 0.219 µM and 0.0841 µM | 0.926 µM and 0.877 µM | –
18 | CN(C)CCCNc1nccc(-c2c(-c3ccc(F)cc3)nn3cc(C(F)(F)F)ccc23)n1 | 3.03 µM | 7.35 µM | –
19 | Nc1ccccc1NC(=O)c1ccc(CN2CCC/C(=C\c3cccc(Cl)c3)C2=O)cc1 | 0.0636 µM | 5.9 µM | –
20 | O=C1/C(=C\c2coc3ccccc3c2=O)c2ccccc2N1c1c(Cl)cccc1Cl | 2.44 µM | 13.1 µM | –
21 | CC(=O)OC[C@]12CC[C@@H]([C@@H](C)C(N)=O)[C@@H]1[C@H]1CC[C@@H]3[C@@]4(C)CC[C@H](OC(C)=O)C(C)(C)[C@@H]4CC[C@@]3(C)[C@]1(C)CC2 | 3.96 µM | 15.6 µM | –
22 | CC[C@@H](C(=O)[C@@H](C)[C@@H](O)[C@H](C)[C@@H]1O[C@@H]([C@@H](CC)C(=O)O)CC[C@@H]1C)[C@H]1OC2(C=C[C@@H](O)[C@]3(CC[C@@](C)([C@H]4CC[C@](O)(CC)[C@H](C)O4)O3)O2)[C@H](C)C[C@@H]1C (some centres not stated) | 0.15 µM | 1.95 µM | –
23 | N#Cc1c(-c2ccccc2)cc(-c2ccccc2)n(CCCCC(=O)NO)c1=O | 2.51 µM | 11.8 µM | –
24 | CN1CCN(Cc2ccc(NC(=O)c3ccc(C#N)c(C#Cc4cnc(N)c5ncccc45)c3)cc2C(F)(F)F)CC1 | 16.9 µM | 63.5 µM | –
25 | COc1cc([C@@H]2c3cc4c(cc3[C@@H](O[C@@H]3O[C@@H]5CO[C@@H](c6cccs6)O[C@H]5[C@H](O)[C@H]3O)[C@H]3COC(=O)[C@H]23)OCO4)cc(OC)c1O | 0.186 µM | 0.537 µM | –

Row | SMILES | GI50 (MDA-MB-468 breast) | TGI (MDA-MB-468 breast) | further results
26 | CC1=C(/C=C/C(C)=C/C=C/C(C)=C/C(=O)Nc2ccc(O)cc2)C(C)(C)CCC1 | 2.22 µM | 8.41 µM | –
27 | C#CCNC(=O)CC[C@]1(C)[C@H]2CC[C@@H]3[C@@H]([C@@](C)(O)CCC=C(C)C)CC[C@@]3(C)[C@]2(C)CC[C@H]1C(=C)C | 33.6 µM | > 100 µM | –
28 | COc1cc([C@@H]2c3cc4c(cc3[C@H](O)[C@H]3COC(=O)[C@H]23)OCO4)cc(OC)c1OC | < 0.01 µM | < 0.01 µM | –
29 | CCCN(CCC)CCCNC(=O)c1cc2c(-c3ccc(OC)c(OC)c3)nn(C)c2s1 | 14 µM | 34.5 µM | –
30 | COc1ccc(C2=C(c3cc(OC)c(OC)c(OC)c3)C(=O)CC2)cc1 | 0.0673 µM | – | –
31 | C=CCN(/C=C1\C(=O)O[C@H](COC)[C@@]2(C)C1=C(O)C(=O)C1=C2[C@H](OC(C)=O)C[C@]2(C)C(=O)CC[C@@H]12)CC=C | 0.0778 µM | 0.649 µM | –
32 | COC(=O)Nc1nc2cc3c(cc2s1)OCCO3 | 29.2 µM | > 50 µM | –
33 | CC1=C([Se]CC(OC(=O)[C@@H](CO)NC(=O)OC(C)(C)C)C(=O)NC(C)(C)C)C(=O)c2ccccc2C1=O (some centres not stated) | 0.759 µM | 2.29 µM | –
34 | Oc1cc(O)c2c(=S)cc(-c3ccc(Cl)cc3)oc2c1 | 0.26 µM | 3.1 µM | –
35 | COc1cccc(C2C3=C(COC3=O)N(CCO)c3cc4c(cc32)OCCO4)c1 (configuration not stated) | 0.0684 µM | 1.27 µM | –
36 | COc1ccc(/C=C\c2cc(OC)c(OC)c(OC)c2)cc1OC(=O)c1cccc(Cn2cc(CCOC(=O)c3cccc(Cn4nnc5c4C(=O)c4ccccc4C5=O)c3)nn2)c1 | < 0.0138 µM | – | –
37 | CCO/C=N/C1=C(C#N)C(c2ccc(F)cc2)c2sc3c(CC)cccc3c2O1 (configuration not stated) | 0.421 µM | 16 µM | –
38 | Clc1ccc(-c2nn3ncccc3c2-c2ccnc(Nc3ccccc3)n2)cc1 | 1.19 µM | 9.63 µM | –
39 | CCN(CC)CCCC(Nc1c2ccc(Cl)cc2nc2ccc(OC)cc12)c1ccc(F)cc1 (configuration not stated) | 1.65 µM | 3.22 µM | –
40 | COc1ccc(Cc2cnc(NC(=O)c3sc4ccccc4c3Cl)s2)cc1 | 0.416 µM | > 100 µM | –
41 | C#COc1cccc(Nc2ncnc3ncc(NC(=O)CCl)cc23)c1 | > 35.4 µM | > 62.5 µM | –
42 | Cn1cc(C[C@@H](N)C(=O)O)c2ccccc21 | > 100 µM | > 100 µM | –
43 | c1ccc(-c2nn(-c3ccccc3)[n+](-c3cccc4ccccc34)n2)cc1 | 0.265 µM | 1.77 µM | –
44 | N#Cc1cccc(NC(=O)c2oc3ccccc3c2-c2cnn(-c3ccccc3)c2)c1 | 406 µM | > 500 µM | –
45 | N#Cc1c(NC(=O)CN2CCOCC2)sc2c1CCCC2 | > 21.7 µM | > 25 µM | –
46 | C=C1CCC2C3(C)COC(c4ccc(SC)cc4)OC3CCC2(C)C1C/C=C1/C(=O)OCC1O (configuration not stated) | 5.34 µM | 18.3 µM | –
47 | COc1ccc(/C=C/c2n(Cc3ccc4ccccc4c3)c3ccccc3[n+]2Cc2ccc3ccccc3c2)cc1 | – | – | GI50 (SK-MEL-28 melanoma): 0.818 µM; TGI (SK-MEL-28 melanoma): 2.08 µM; GI50 (OVCAR-5 ovarian): 0.828 µM; TGI (OVCAR-5 ovarian): 2.11 µM; GI50 (SNB-75 CNS): 0.15 µM; TGI (SNB-75 CNS): 1.48 µM; GI50 (HS 578T breast): 0.583 µM; TGI (HS 578T breast): 2.85 µM; GI50 (RXF 393 renal): 0.377 µM; TGI (RXF 393 renal): 1.59 µM; GI50 (HL-60(TB) leukemia): 0.268 µM; TGI (HL-60(TB) leukemia): 0.993 µM; GI50 (ACHN renal): 1.12 µM; TGI (ACHN renal): 2.32 µM; GI50 (NCI/ADR-RES ovarian): 2.11 µM; TGI (NCI/ADR-RES ovarian): 5.43 µM
48 | CCOc1ccc(/C=C/[N+](=O)[O-])cc1 | 1.97 µM | 3.97 µM | –
49 | Cc1nc(/N=C(\N)NC(=O)Nc2ccccc2Cl)sc1C | 0.459 µM | 4.67 µM | –
50 | N#Cc1c(-c2ccc(Cl)cc2)nc(SCc2ccc(F)cc2)nc1N1CCNCC1 | 1.47 µM | 2.88 µM | –
